This note sets out measurements from patent publication US9796733B2, “Imidazo-pyrazine derivatives useful as soluble guanylate cyclase activators” (Merck Sharp & Dohme Corp., priority 2014, dated 2017).

Each structure is given as a SMILES string.

The test system of test [1] is Spontaneously hypertensive rats (SHR). The test can be described thus: Acute efficacy in spontaneously hypertensive rats (SHR): telemetry blood pressure lowering after a single oral dose. The class given is in vivo, rat. In a few lines: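 Values are the maximum peak fall in systolic pressure after one oral dose (mpk), computed hourly against baseline from a vehicle dose given the day before. Rats were conscious, male, spontaneously hypertensive, with femoral-aortic telemetry recording 30 s every 10 min, 14 days post-surgery.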

Test [2] concerns the target T1, sGC α1/β1 heterodimer (Homo sapiens, UniProt Q02108+Q02153).
T1 construct: expressed in transfected cells; host or cells: CHO-K1 (clone #7, CHO-K1/sGC)
T1 sequence (Q02108 1-690): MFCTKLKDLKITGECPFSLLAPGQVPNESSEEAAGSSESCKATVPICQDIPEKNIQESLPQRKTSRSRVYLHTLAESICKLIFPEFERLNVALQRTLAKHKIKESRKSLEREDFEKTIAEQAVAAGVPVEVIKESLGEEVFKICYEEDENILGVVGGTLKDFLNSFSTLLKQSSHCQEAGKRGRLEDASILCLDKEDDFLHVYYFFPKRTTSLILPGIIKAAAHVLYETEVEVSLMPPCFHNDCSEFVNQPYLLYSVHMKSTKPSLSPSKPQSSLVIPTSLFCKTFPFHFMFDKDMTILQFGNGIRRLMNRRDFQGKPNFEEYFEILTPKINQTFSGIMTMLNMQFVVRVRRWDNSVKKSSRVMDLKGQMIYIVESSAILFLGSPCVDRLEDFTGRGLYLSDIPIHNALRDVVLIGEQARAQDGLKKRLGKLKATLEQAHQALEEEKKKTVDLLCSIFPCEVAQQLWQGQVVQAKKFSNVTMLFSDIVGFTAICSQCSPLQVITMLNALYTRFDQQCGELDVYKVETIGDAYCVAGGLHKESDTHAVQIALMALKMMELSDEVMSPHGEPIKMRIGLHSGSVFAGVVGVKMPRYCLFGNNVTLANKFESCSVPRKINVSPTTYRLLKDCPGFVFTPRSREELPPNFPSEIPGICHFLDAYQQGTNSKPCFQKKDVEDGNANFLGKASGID
T1 sequence (Q02153 1-619): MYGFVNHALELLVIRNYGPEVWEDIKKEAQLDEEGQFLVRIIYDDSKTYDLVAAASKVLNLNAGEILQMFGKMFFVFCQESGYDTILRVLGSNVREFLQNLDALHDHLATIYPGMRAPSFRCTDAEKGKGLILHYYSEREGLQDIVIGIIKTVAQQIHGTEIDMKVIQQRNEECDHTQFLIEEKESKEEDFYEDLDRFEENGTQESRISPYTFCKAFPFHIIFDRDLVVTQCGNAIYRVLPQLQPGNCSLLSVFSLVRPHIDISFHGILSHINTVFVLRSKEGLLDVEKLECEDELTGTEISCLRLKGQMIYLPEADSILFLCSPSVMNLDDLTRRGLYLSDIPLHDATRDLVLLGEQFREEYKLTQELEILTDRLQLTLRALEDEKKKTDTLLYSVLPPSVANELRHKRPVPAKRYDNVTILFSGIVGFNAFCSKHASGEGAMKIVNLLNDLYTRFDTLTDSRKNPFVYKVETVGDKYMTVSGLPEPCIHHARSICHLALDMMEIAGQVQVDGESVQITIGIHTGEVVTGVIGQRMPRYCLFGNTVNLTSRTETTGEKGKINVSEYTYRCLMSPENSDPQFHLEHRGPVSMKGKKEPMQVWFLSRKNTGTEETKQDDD
The test can be described thus: Cell-based sGC functional assay (CASA assay): cGMP generation in CHO-K1/sGC cells, HTRF detection. As to conditions: for Emax: CHO-K1, percent activation relative to standard Compound A in CHO-K1/sGC cells, read-out: % Act.; for EC50: inflection point (IP) of cGMP generation in CHO-K1/sGC cells, 4P fit, activity expressed as percentage of Compound A. The gist of the method:
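cGMP was quantified by HTRF after 1 hr, 37° C exposure of thawed CHO-K1 cells expressing sGC α1/β1 to compound, with or without 1 μM DETA-NO. IBMX (0.5 mM) blocked cGMP breakdown, and DMSO was 2.5% final. Percent of standard Compound A's maximal cGMP was fitted (4P) for inflection point.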

For `CC1(c2ccc(Cl)c(Cl)c2)C(=O)Nc2nc(-c3cn4ccnc4cn3)nc(N)c21` (stereo not drawn) [Example 138A, 4-amino-5-(3,4-dichlorophenyl)-2-(imidazo[1,2-a]pyrazin-6-yl)-5-methyl-5H-pyrrolo[2,3-d]pyrimidin-6(7H)-one], the “Maximum peak decrease of systolic blood pressure (SBP) in SHR, Cat.” value (shortened to “Maximum peak decrease”) in test [1] (P.O. 3.0 mpk) is on record as “B (Category B=SBP in SHRs 20-40 mmHg)”. For the same molecule, in test [2], the Emax turned out to be 151% and a half-maximal effect (EC50) was put at 369 nM.

As for `CC(C)c1ccc(C2(C)C(=O)Nc3nc(-c4cn5ccnc5c(CCC(F)(F)C(F)(F)F)n4)nc(N)c32)nc1` (stereo not drawn) [Example 225A, 4-amino-5-(5-isopropylpyridin-2-yl)-5-methyl-2-(8-(3,3,4,4,4-pentafluorobutyl)imidazo [1,2-a]pyrazin-6-yl)-5H-pyrrolo[2,3-d]pyrimidin-6(7H)-one], the “Maximum peak decrease” value in test [1] (P.O. 1.0 mpk) is “A (Category A=SBP in SHRs<20 mmHg)”. In test [2], the Emax was found to be 82% and the EC50 (in general, the concentration at which the effect is half-maximal) stood at 166 nM.

Take `CC1(c2ccc(F)cc2)C(=O)Nc2nc(-c3cn4cc(C5CC5)nc4c(CCC(F)(F)C(F)(F)F)n3)nc(N)c21` (stereo not drawn) [Example 157A, 4-amino-2-(2-cyclopropyl-8-(3,3,4,4,4-pentafluorobutyl)imidazo [1,2-a]pyrazin-6-yl)-5-(4-fluorophenyl)-5-methyl-5H-pyrrolo[2,3-d]pyrimidin-6(7H)-one]: the “Maximum peak decrease” value in test [1] (P.O. 3.0 mpk) is given as “B (Category B=SBP in SHRs 20-40 mmHg)”. In test [2], the Emax worked out at 90% and the EC50 amounted to 227 nM.

With `CC1(c2ccc(F)cc2)C(=O)Nc2nc(-c3cn4cc(C(F)(F)F)nc4c(Cc4ccccc4)n3)nc(N)c21` (stereo not drawn) [Example 154A, 4-amino-2-(8-benzyl-2-(trifluoromethyl)imidazo[1,2-a]pyrazin-6-yl)-5-(4-fluorophenyl)-5-methyl-5H-pyrrolo[2,3-d]pyrimidin-6(7H)-one], the “Maximum peak decrease” value in test [1] (P.O. 1.0 mpk) is recorded as “A (Category A=SBP in SHRs<20 mmHg)”. Besides, in test [2], the Emax amounted to 120% and it took 85 nM to reach a half-maximal effect (EC50).

In the case of `CC1(c2nnc(C3CC3)s2)C(=O)Nc2nc(-c3cn4ccnc4c(Cc4ccc(F)cc4)n3)nc(N)c21` (stereo not drawn) [Example 32A, 4-amino-5-(5-cyclopropyl-1,3,4-thiadiazol-2-yl)-2-(8-(4-fluorobenzyl)imidazo[1,2-a]pyrazin-6-yl)-5-methyl-5H-pyrrolo[2,3-d]pyrimidin-6(7H)-one], the “Maximum peak decrease” value in test [1] (P.O. 1.0 mpk) is “B (Category B=SBP in SHRs 20-40 mmHg)”. Further, in test [2], the Emax came to 137% and the EC50 was 58 nM.

Regarding `CC1(c2nnc(C3CC3)s2)C(=O)Nc2nc(-c3cn4ccnc4c(CCC(F)(F)C(F)(F)F)n3)nc(N)c21` (stereo not drawn) [Example 59A, 4-amino-5-(5-cyclopropyl-1,3,4-thiadiazol-2-yl)-5-methyl-2-(8-(3,3,4,4,4-pentafluorobutyl)imidazo[1,2-a]pyrazin-6-yl)-5H-pyrrolo[2,3-d]pyrimidin-6(7H)-one], the “Maximum peak decrease” value in test [1] (P.O. 1.0 mpk) is “A (Category A=SBP in SHRs<20 mmHg)”. Further, in test [2], the Emax stood at 97% and the EC50 came to 67 nM.

`Cc1cnc2c(CCC(F)(F)C(F)(F)F)nc(-c3nc(N)c4c(n3)NC(=O)C4(C)c3ccc(F)cc3)cn12` (stereo not drawn) [Example 171A, 4-amino-5-(4-fluorophenyl)-5-methyl-2-(3-methyl-8-(3,3,4,4,4-pentafluorobutyl)imidazo [1,2-a]pyrazin-6-yl)-5H-pyrrolo[2,3-d]pyrimidin-6(7H)-one]: in test [1] (P.O. 1.0 mpk), the “Maximum peak decrease” value is listed as “B (Category B=SBP in SHRs 20-40 mmHg)”. For the same molecule, in test [2], the Emax is 126% and the EC50 worked out at 80 nM.

In the case of `Nc1nc(-c2cn3ccnc3c(CCC(F)(F)C(F)(F)F)n2)nc2c1C(c1cncc(F)c1)(C1CC1)C(=O)N2` (stereo not drawn) [Example 353B, 4-amino-5-cyclopropyl-5-(5-fluoropyridin-3-yl)-2-(8-(3,3,4,4,4-pentafluorobutyl)imidazo[1,2-a]pyrazin-6-yl)-5H-pyrrolo[2,3-d]pyrimidin-6(7H)-one], in test [1] (P.O. 3.0 mpk), the “Maximum peak decrease” value is on record as “A (Category A=SBP in SHRs<20 mmHg)”. Also, in test [2], the Emax worked out at 168% and the EC50 stood at 1030 nM.

In the case of `CC1(c2ccc(F)cc2)C(=O)Nc2nc(-c3cn4c(Cl)cnc4c(CCC(F)(F)C(F)(F)F)n3)nc(N)c21` (stereo not drawn) [Example 255A, 4-amino-2-(3-chloro-8-(3,3,4,4,4-pentafluorobutyl)imidazo [1,2-a]pyrazin-6-yl)-5-(4-fluorophenyl)-5-methyl-5H-pyrrolo[2,3-d]pyrimidin-6(7H)-one], in test [1] (P.O. 1.0 mpk), the “Maximum peak decrease” value is on record as “C (Category C=SBP in SHRs>40 mmHg)”. Also, in test [2], the Emax is 142% and the 50% effective concentration (EC50) is 32 nM.

`Nc1nc(-c2cn3ccnc3c(CCC(F)(F)F)n2)nc2c1C(c1ccc(F)c(F)c1)(C1CC1)C(=O)N2` (stereo not drawn) [Example 318A, 4-amino-5-cyclopropyl-5-(3,4-difluorophenyl)-2-(8-(3,3,3-trifluoropropyl)imidazo[1,2-a]pyrazin-6-yl)-5H-pyrrolo[2,3-d]pyrimidin-6(7H)-one]: the “Maximum peak decrease” value in test [1] (P.O. 2.0 mpk) is “A (Category A=SBP in SHRs<20 mmHg)”. Moreover, in test [2], the Emax was found to be 127% and the EC50 came to 2180 nM.

As to `CC1(c2ccc(Cl)cc2)C(=O)Nc2nc(-c3cn4ccnc4c(C4CCC4)n3)nc(N)c21` (stereo not drawn) [Example 15A, 4-amino-5-(4-chlorophenyl)-2-(8-cyclobutylimidazo[1,2-a]pyrazin-6-yl)-5-methyl-5H-pyrrolo[2,3-d]pyrimidin-6(7H)-one], in test [1] (P.O. 1.0 mpk), the “Maximum peak decrease” value was “C (Category C=SBP in SHRs>40 mmHg)”. Besides, in test [2], the Emax is 119% and the response was half-maximal at 82 nM (EC50).

For `CC1(c2ccc(Cl)cc2)C(=O)Nc2nc(-c3cn4ccnc4cn3)nc(N)c21` (stereo not drawn) [Example 144A, 4-amino-5-(4-chlorophenyl)-2-(imidazo[1,2-a]pyrazin-6-yl)-5-methyl-5H-pyrrolo[2,3-d]pyrimidin-6(7H)-one], the “Maximum peak decrease” value in test [1] (P.O. 1.0 mpk) is listed as “B (Category B=SBP in SHRs 20-40 mmHg)”. Further, in test [2], the Emax was found to be 117% and the EC50 came to 400 nM.

For `CC1(c2ccc(F)cn2)C(=O)Nc2nc(-c3cn4ccnc4c(CCC(F)(F)F)n3)nc(N)c21` (stereo not drawn) [Example 202B, 4-amino-5-(5-fluoropyridin-2-yl)-5-methyl-2-(8-(3,3,3-trifluoropropyl)imidazo[1,2-a]pyrazin-6-yl)-5H-pyrrolo[2,3-d]pyrimidin-6(7H)-one], in test [1] (P.O. 3.0 mpk), the “Maximum peak decrease” value was “B (Category B=SBP in SHRs 20-40 mmHg)”. For the same molecule, in test [2], the Emax came out at 91% and it took 870 nM to reach a half-maximal effect (EC50).

Take `CC1(c2ccc(Cl)cc2F)C(=O)Nc2nc(-c3cn4ccnc4cn3)nc(N)c21` (stereo not drawn) [Example 136A, 4-amino-5-(4-chloro-2-fluorophenyl)-2-(imidazo[1,2-a]pyrazin-6-yl)-5-methyl-5H-pyrrolo[2,3-d]pyrimidin-6(7H)-one]: the “Maximum peak decrease” value in test [1] (P.O. 1.0 mpk) was “B (Category B=SBP in SHRs 20-40 mmHg)”. Also, in test [2], the Emax was determined as 129% and the EC50 came to 77 nM.

For the molecule `Nc1nc(-c2cn3ccnc3c(CCC(F)(F)C(F)(F)F)n2)nc2c1C(c1ncc(Cl)cn1)(C1CC1)C(=O)N2` (stereo not drawn) [Example 349A, 4-amino-5-(5-chloropyrimidin-2-yl)-5-cyclopropyl-2-(8-(3,3,4,4,4-pentafluorobutyl)imidazo[1,2-a]pyrazin-6-yl)-5H-pyrrolo[2,3-d]pyrimidin-6(7H)-one], the “Maximum peak decrease” value in test [1] (P.O. 2.0 mpk) is “B (Category B=SBP in SHRs 20-40 mmHg)”. In addition, in test [2], the Emax worked out at 107% and it took 213 nM to reach a half-maximal effect (EC50).
